Results on 3 molecules are retold here after patent US20170209447A1, “Use of PNP Inhibitor to Treat Relapse of Malignancy after Hematopoietic Stem Cell Transplant” (Nitor Therapeutics, priority 2014, published 2017).

The subject of one assay is tetanus toxoid vaccine. Briefly: PNPi as adjuvant in tetanus toxoid vaccine efficacy study (tetanus toxoid mouse model). The format is in vivo, mice. As to conditions: compared to vehicle treated group. As to the method: This Example Evaluates PNPi as an Adjuvant in Tetanus Toxoid Vaccine Efficacy Study.
Method: Tetanus toxoid (TT) was used to vaccinate mice thrice, two weeks apart. Mice were treated by oral administration of compounds NTR001 and NTR002 and serum was collected at various time points for antibody titer and interferon-g analysis. Mice in Groups 2-6 (Table 2) are vaccinated subcutaneously with 0.1 ml tetanus toxoid vaccine on DAYS 0, 14 and 28. Mice in Group 1 (Table 1) received no vaccine. Antibody titers for DAYS 38 are determined by ELISA using tetanus toxoid coated microtiter plates and anti-mouse conjugate. Sera from DAY 30 are assayed by ELISA for interferon-g.

Assay [1] relates to L. monocytogenes (ATCC Strain35152, hemolytic substrain). As to conditions: 30 mg/kg PO or IP, or 2 mg/kg drinking water; 1×10^6 CFU i.v.; FIGS. 7 and 9.
Another assay deals with B16 tumors. As to the kind of experiment: PNPi as anticancer agent in mouse melanoma model. The format is in vivo, C57BL/6 mice. The note with it: cyclophosphamide 100 mg/kg IP single dose; FIG. 6. The procedure: Evaluation of PNPi as Anticancer Agent in Mouse Melanoma Model.
Treatment with the NTR001 was initiated on day 6 after injection of tumor cells. Tumor volume and survival were recorded every 3-4 days.

In a further assay the target is T1, human TLR4 (Homo sapiens, UniProt O00206).
T1 construct: expressed in transfected cells; host or cells: HEK293
T1 sequence (O00206 24-839): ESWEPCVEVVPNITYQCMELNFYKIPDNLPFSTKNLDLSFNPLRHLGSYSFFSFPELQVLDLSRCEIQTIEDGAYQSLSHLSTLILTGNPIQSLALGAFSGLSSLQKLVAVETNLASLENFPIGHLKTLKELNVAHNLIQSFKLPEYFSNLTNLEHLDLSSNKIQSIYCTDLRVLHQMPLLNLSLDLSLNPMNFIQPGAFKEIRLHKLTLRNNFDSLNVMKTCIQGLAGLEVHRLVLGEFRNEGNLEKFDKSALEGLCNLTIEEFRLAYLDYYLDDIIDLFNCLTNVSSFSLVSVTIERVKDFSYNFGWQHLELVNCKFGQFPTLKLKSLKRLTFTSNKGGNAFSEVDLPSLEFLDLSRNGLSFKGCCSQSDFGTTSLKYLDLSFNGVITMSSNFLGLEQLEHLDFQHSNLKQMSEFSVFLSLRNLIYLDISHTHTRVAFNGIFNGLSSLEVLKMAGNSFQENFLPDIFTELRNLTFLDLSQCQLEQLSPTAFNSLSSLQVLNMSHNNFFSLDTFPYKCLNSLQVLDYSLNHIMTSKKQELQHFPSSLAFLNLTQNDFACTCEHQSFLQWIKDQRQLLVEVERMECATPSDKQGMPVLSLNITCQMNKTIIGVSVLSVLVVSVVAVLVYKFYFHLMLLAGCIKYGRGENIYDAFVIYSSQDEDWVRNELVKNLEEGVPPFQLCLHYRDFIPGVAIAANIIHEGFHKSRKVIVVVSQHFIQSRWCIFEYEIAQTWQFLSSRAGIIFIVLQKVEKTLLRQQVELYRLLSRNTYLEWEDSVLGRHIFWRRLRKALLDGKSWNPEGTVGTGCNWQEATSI
T1 sequence (Q9Y6Y9 17-160 partner limits assumed): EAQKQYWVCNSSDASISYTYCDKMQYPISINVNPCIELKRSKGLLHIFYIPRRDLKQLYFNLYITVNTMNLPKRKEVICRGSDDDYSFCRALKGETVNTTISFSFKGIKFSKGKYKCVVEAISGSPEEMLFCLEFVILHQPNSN
As to the kind of experiment: TLR ligand screening: NF-κB SEAP reporter in HEK293 cells expressing TLR4. Type of assay: cell-based. The note with it: FIG. 2. As to the method: (§1) Toll-Like Receptor (TLR) Ligand Screening: In-vitro Activity of the PNPi, Guanosine and Inosine on Seven Different Human TLRs (TLR2, 3, 4, 5, 7, 8 and 9) as a Potential Agonist.
(§2) Method: TLR stimulation is tested by assessing NF-KB activation in HEK293 cells expressing a given TLR. The Secreted Embryonic Alkaline Phosphatase (SEAP) reporter is under the control of a promoter inducible by the transcription factor NF-κB.
(§3) This reporter gene allows the monitoring of signaling through the TLR, based on the activation of NF-κB. The compounds are evaluated at one concentration and compared to control ligands. This step is performed in triplicate.

Another assay has as its target T2, human TLR2 (Homo sapiens, UniProt O60603).
T2 construct: expressed in transfected cells; host or cells: HEK293
Briefly: TLR ligand screening: NF-κB SEAP reporter in HEK293 cells expressing TLR2. The format is cell-based. The note with it: FIG. 2. As to the method:
as §1, §2, §3

Where [2] appears, read: Guanosine 100 uM in combination with NTR001 (10 uM) and/or Inosine (100 uM).
[3] abbreviates: one concentration: Guanosine 100 uM, NTR001 10 uM, Inosine 100 uM, HEK293, triplicate.

T2 sequence (O60603 21-784): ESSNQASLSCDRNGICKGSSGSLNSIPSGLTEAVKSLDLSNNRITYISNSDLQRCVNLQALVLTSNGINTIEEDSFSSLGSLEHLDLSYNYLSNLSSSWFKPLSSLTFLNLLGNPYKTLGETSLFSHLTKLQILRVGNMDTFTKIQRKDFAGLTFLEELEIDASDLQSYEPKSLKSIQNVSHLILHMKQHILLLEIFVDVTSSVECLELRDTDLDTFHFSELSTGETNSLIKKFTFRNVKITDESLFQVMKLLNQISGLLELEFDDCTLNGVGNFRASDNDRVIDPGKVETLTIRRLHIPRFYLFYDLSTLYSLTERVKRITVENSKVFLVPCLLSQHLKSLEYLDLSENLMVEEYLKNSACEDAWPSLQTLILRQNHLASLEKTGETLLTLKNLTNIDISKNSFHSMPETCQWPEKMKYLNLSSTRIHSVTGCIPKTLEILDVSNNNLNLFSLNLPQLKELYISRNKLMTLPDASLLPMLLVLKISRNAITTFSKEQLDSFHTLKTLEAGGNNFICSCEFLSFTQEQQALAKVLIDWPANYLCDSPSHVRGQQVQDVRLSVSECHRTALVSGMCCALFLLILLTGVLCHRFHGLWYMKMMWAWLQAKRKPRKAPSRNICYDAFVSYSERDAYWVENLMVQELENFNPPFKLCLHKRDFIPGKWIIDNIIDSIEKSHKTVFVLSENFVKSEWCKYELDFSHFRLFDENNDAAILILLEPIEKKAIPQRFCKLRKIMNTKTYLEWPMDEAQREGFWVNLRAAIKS

For `O=c1[nH]cnc2c(CN3C[C@H](CO)[C@@H](O)C3)c[nH]c12` [NTR002, 1,5-dihydro-7-[[(3R,4R)-3-hydroxy-4-(hydroxymethyl)pyrrolidin-1-yl]methyl]-4H-pyrrolo[3,2-d]pyrimidin-4-one], in the assay on tetanus toxoid vaccine (day 30, ELISA, high dose group 60 mg/kg p.o., FIG. 4), the serum interferon-g levels entry is “elevated”. Besides, the “serum tetanus toxoid antibody titers” value in the assay on tetanus toxoid vaccine (day 38, ELISA, p.o. 30 mg/kg (6 days of treatment) and 60 mg/kg (3 days of treatment), FIG. 3) is “significantly elevated”. Moreover, the weight loss entry in assay [1] is on record as “significant decrease”.

`O=P1(N(CCCl)CCCl)NCCCO1` (centres unmarked) [Cyclcophosphamide, cyclophosphamide, reference compound] yielded a survival with B16 tumors of 30%.

`Nc1nc2c(ncn2[C@@H]2O[C@H](CO)[C@@H](O)[C@H]2O)c(=O)[nH]1` [Guanosine, guanosine]: the “stimulatory effect on human TLR4 (NF-κB activation), combination” value at human TLR4 (setting [2]) is reported as “significant stimulatory effect”. In addition, the “stimulatory effect on human TLR4 (NF-κB activation)” value on human TLR4 (setting [3]) was “significant stimulatory effect”. The “stimulatory effect on human TLR2 (NF-κB activation), combination” value at human TLR2 (setting [2]) is listed as “significant stimulatory effect”. For the same molecule, the “stimulatory effect on human TLR2 (NF-κB activation)” value on human TLR2 (setting [3]) is given as “significant stimulatory effect”.
